Test results as given in ChEMBL document CHEMBL5375946, “Discovery of KB-0742, a Potent, Selective, Orally Bioavailable Small Molecule Inhibitor of CDK9 for MYC-Dependent Cancers” (J Med Chem, 2023).

Assays:
[1] = in vitro; settings: human, plasma
[2] = in vitro; settings: rat, plasma
[3] = in vitro; settings: dog, plasma
[4] = in vitro; settings: mouse, plasma
[5] = in vitro; settings: dog, liver microsomes

fraction unbound at 10 µM [1]: 0.62
fraction unbound at 10 µM [2]: 0.59
fraction unbound at 10 µM [3]: 0.28
fraction unbound at 10 µM [4]: 0.52
remaining at 3 h [5]: 68.8%
SMILES: CCC(CC)c1cc(N[C@H]2CC[C@H](N)C2)n2nccc2n1 [ISTISOCICLIB]
